Results from patent publication US20230183237A1, “COMPETITIVE AND NONCOMPETITIVE INHIBITORS OF THE MUSCARINIC ACETYLCHOLINE RECEPTOR M5” (Vanderbilt University, priority 2020, published 2023).

target: T1, hM5 (Homo sapiens, UniProt P08912); assay: Calcium mobilization concentration-response (IC50 vs EC80 acetylcholine), CHO hM5; type: cell-based; details: not given
T1 construct: expressed in transfected cells
T1 sequence (P08912 1-532): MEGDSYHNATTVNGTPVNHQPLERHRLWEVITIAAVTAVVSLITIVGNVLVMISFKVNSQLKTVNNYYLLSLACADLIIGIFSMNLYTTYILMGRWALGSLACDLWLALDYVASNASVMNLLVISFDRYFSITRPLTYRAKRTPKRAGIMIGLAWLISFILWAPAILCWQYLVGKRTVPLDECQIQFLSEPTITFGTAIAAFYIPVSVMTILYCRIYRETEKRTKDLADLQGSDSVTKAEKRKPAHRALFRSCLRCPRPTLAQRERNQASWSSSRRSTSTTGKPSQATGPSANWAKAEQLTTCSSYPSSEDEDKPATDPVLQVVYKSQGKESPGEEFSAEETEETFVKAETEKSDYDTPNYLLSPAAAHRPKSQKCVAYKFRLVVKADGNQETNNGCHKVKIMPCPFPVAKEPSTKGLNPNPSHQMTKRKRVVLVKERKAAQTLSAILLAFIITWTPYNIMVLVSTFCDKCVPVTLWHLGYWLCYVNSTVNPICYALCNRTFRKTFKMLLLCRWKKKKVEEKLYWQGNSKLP
Summary of the method: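 CHO cells stably expressing hM5, dye-loaded, in HBSS/20 mM HEPES/2.5 mM probenecid, pH 7.4. Compounds were pre-incubated 140 s before an EC80 acetylcholine challenge, with calcium flux read kinetically.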

How did the IC50 turn out when `Cc1cc2ncnn2cc1C1CC2CCC(C1)N2S(=O)(=O)c1cnn2c1CCC2` (stereo not shown) [Compound 193, 6-(8-((5,6-dihydro-4H-pyrrolo[1,2-b]pyrazol-3-yl)sulfonyl)-8-azabicyclo[3.2.1]octan-3-yl)-7-methyl-[1,2,4]triazolo[1,5-a]pyridine] was run?
Its IC50 is 1600 nM.

same assay, conditions: CELL LINE hM5; calcium mobilization, EC80 acetylcholine addition; read-out: IC50

For `O=S(=O)(c1ccc2ncccc2c1)N1CCC(c2cc3[nH]ncc3cn2)CC1` [Compound 20, 6-((4-(1H-pyrazolo[4,3-c]pyridin-6-yl)piperidin-1-yl)sulfonyl)quinoline], which IC50 is on record?
The IC50 was > 10000 nM.

`O=S(=O)(c1ccc(Cl)nc1)N1CCC(c2cc3cc[nH]c3cn2)CC1` [Compound 94, 5-(1-((6-chloropyridin-3-yl)sulfonyl)piperidin-4-yl)-1H-pyrrolo[2,3-c]pyridine] was tested. Which IC50 did it give?
Its IC50 is > 10000 nM.

How did the IC50 turn out when `Cc1sc(C#N)nc1C1CCN(S(=O)(=O)c2ccc3c(c2)CCO3)CC1` [Compound 226] was run?
Its IC50 is 1400 nM.

Which IC50 does the source give for `O=S(=O)(c1ccc2ncsc2c1)N1CCC(c2cc3cc[nH]c3cn2)CC1` [Compound 25, 6-((4-(1H-pyrrolo[2,3-c]pyridin-5-yl)piperidin-1-yl)sulfonyl)benzo[d]thiazole] here?
The IC50 was > 10000 nM.

Which IC50 does the source give for `O=S(=O)(c1ccc2ncsc2c1)N1CCC(c2ccc3ncnn3c2)CC1` [Compound 62, 6-((4-([1,2,4]triazolo[1,5-a]pyridin-6-yl)piperidin-1-yl)sulfonyl)benzo[d]thiazole] here?
The IC50 was > 10000 nM.

`COc1ccc(S(=O)(=O)N2CCC(c3cn4ncnc4cc3C)CC2)cc1C(F)(F)F` [Compound 130, 6-(1-((4-methoxy-3-(trifluoromethyl)phenyl)sulfonyl)piperidin-4-yl)-7-methyl-[1,2,4]triazoto[1,5-a]pyridine] was tested. Which IC50 did it give?
Its IC50 is > 10000 nM.

Which IC50 does the source give for `O=S(=O)(c1cnn2c1CCCC2)N1CCC(c2cn3ncnc3cc2C(F)(F)F)CC1` [Compound 271, 6-(1-((4,5,6,7-tetrahydropyrazolo[1,5-a]pyridin-3-yl)sulfonyl)piperidin-4-yl)-7-(trifluoromethyl)-[1,2,4]triazolo[1,5-a]pyridine] here?
Its IC50 is 51 nM.

How did the IC50 turn out when `Cc1cc2nccn2nc1C1CCN(S(=O)(=O)c2ccc3c(c2)CCCO3)CC1` [Compound 43, 6-(1-(chroman-6-ylsulfonyl)piperidin-4-yl)-7-methylimidazo[1,2-b]pyridazine] was run?
Its IC50 is 3600 nM.

How did the IC50 turn out when `Cc1ncc(S(=O)(=O)N2CC=C(c3cc4ncnn4cc3Cl)CC2)n1C` [Compound 223, 6-chloro-7-(1-((1,2-dimethyl-1H-imidazol-5-yl)sulfonyl)-1,2,3,6-tetrahydropyridin-4-yl)-[1,2,4]triazolo[1,5-a]pyridine] was run?
Its IC50 is 660 nM.

With `Cc1cc2ncnn2cc1C1CCN(S(=O)(=O)c2ccc3c(c2)nnn3C)CC1` [Compound 124, 1-methyl-5-((4-(7-methyl-[1,2,4]triazolo[1,5-a]pyridin-6-yl)piperidin-1-yl)sulfonyl)-1H-benzo[d][1,2,3]triazole] as the compound, how does the IC50 read?
The IC50 was > 10000 nM.

With `O=S(=O)(c1ccc2c(c1)CCO2)N1CC[C@@H](c2cn(-c3ccc4scnc4c3)nn2)C1` [Compound 59, (R)-5-(4-(1-((2,3-Dihydrobenzofuran-5-yl)sulfonyl)pyrrolidin-3-yl)-1H-1,2,3-triazol-1-yl)benzo[d]thiazole] as the compound, how does the IC50 read?
The IC50 was > 10000 nM.

Which IC50 does the source give for `Cc1cc2ncnn2cc1C1CCN(S(=O)(=O)c2cnc3c(c2)CCO3)CC1` [Compound 141, 5-((4-(7-methyl-[1,2,4]triazolo[1,5-a]pyridin-6-yl)piperidin-1-yl)sulfonyl)-2,3-dihydrofuro[2,3-b]pyridine] here?
The IC50 was 1400 nM.

`Cc1cc2ncnn2cc1C1CCN(S(=O)(=O)c2c(C(F)(F)F)nn(C)c2C)CC1` [Compound 118, 6-(1-((1,5-dimethyl-3-(trifluoromethyl)-1H-pyrazol-4-yl)sulfonyl)piperidin-4-yl)-7-methyl-[1,2,4]triazolo[1,5-a]pyridine] was tested. Which IC50 did it give?
Its IC50 is 81 nM.

How did the IC50 turn out when `Cc1cc2nccn2cc1C1CCN(S(=O)(=O)c2ccc3ncsc3c2)CC1` [Compound 68, 6-((4-(7-methylimidazo[1,2-a]pyridin-6-yl)piperidin-1-yl)sulfonyl)benzo[d]thiazole] was run?
The IC50 was 6000 nM.

How did the IC50 turn out when `Cc1sc(C(N)=O)nc1C1=CCN(S(=O)(=O)c2cnn(C)c2C)CC1` [Compound 202, 4-(1-((1,5-dimethyl-1H-pyrazol-4-yl)sulfonyl)-1,2,3,6-tetrahydropyridin-4-yl)-5-methylthiazole-2-carboxamide] was run?
Its IC50 is > 10000 nM.

`CCc1cc2ncnn2cc1C1CCN(S(=O)(=O)c2cnc(C)n2C)CC1` [Compound 300, 6-(1-((1,2-dimethyl-1H-imidazol-5-yl)sulfonyl)piperidin-4-yl)-7-ethyl-[1,2,4]triazolo[1,5-a]pyridine] was tested. Which IC50 did it give?
The IC50 was 227 nM.

Which IC50 does the source give for `Cc1cc2c(cc1C1CCN(S(=O)(=O)c3cnn(C)c3C)CC1)OCO2` [Compound 371, 1-((1,5-dimethyl-1H-pyrazol-4-yl)sulfonyl)-4-(6-methylbenzo[d][1,3]dioxol-5-yl)piperidine] here?
The IC50 was 17 nM.

With `Cc1cc(S(=O)(=O)N2CCC(c3nn4ccnc4cc3C)CC2)c(C)s1` [Compound 311, 6-(1-((2,5-dimethylthiophen-3-yl)sulfonyl)piperidin-4-yl)-7-methylimidazo[1,2-b]pyridazine] as the compound, how does the IC50 read?
Its IC50 is 4900 nM.

For `Cc1nc2[nH]ccc2nc1C1CCN(S(=O)(=O)c2ccc3ncsc3c2)CC1` [Compound 16, 6-((4-(3-methyl-5H-pyrrolo[2,3-b]pyrazin-2-yl)piperidin-1-yl)sulfonyl)benzo[d]thiazole], which IC50 is on record?
The IC50 was > 10000 nM.

With `Cc1c(C2CCN(S(=O)(=O)c3ccc4c(c3)CCO4)CC2)nn2ccnc2c1C` [Compound 45, 6-(1-((2,3-dihydrobenzofuran-5-yl)sulfonyl)piperidin-4-yl)-7,8-dimethylimidazo[1,2-b]pyridazine] as the compound, how does the IC50 read?
The IC50 was > 10000 nM.

`CCc1cc2ncnn2cc1C1CCN(S(=O)(=O)c2c(Cl)nn(C)c2C)CC1` [Compound 337, 6-(1-((3-chloro-1,5-dimethyl-1H-pyrazol-4-yl)sulfonyl)piperidin-4-yl)-7-ethyl-[1,2,4]triazolo[1,5-a]pyridine] was tested. Which IC50 did it give?
Its IC50 is 37 nM.

With `O=S(=O)(c1cnn2c1CCCC2)N1CCC(c2cn3ncnc3cc2Cl)CC1` [Compound 283, 7-chloro-6-(1-((4,5,6,7-tetrahydropyrazolo[1,5-a]pyridin-3-yl)sulfonyl)piperidin-4-yl)-[1,2,4]triazolo[1,5-a]pyridine] as the compound, how does the IC50 read?
The IC50 was 7.3 nM.

same assay, conditions: CELL LINE hM5; vs EC80 acetylcholine; read-out: IC50

With `COc1ncc(S(=O)(=O)N2CCC(c3cn4ncnc4cc3C)CC2)s1` [Compound 600, 2-methoxy-5-((4-(7-methyl-[1,2,4]triazolo[1,5-a]pyridin-6-yl)piperidin-1-yl)sulfonyl)thiazole] as the compound, how does the IC50 read?
Its IC50 is 529 nM.

Which IC50 does the source give for `COc1c(S(=O)(=O)N2CCC(c3cn4ncnc4cc3C(F)(F)F)CC2)cnn1C` [Compound 585, 6-(1-((5-methoxy-1-methyl-1H-pyrazol-4-yl)sulfonyl)piperidin-4-yl)-7-(trifluoromethyl)-[1,2,4]triazolo[1,5-a]pyridine] here?
Its IC50 is 67 nM.

For `O=S(=O)(c1cnc(Cl)s1)N1CCC(c2cn3ncnc3cc2C(F)F)CC1` [Compound 516, 2-chloro-5-((4-(7-(difluoromethyl)-[1,2,4]triazolo[1,5-a]pyridin-6-yl)piperidin-1-yl)sulfonyl)thiazole], which IC50 is on record?
Its IC50 is 1700 nM.

With `Cc1ncc(S(=O)(=O)N2CCC(c3cn4ncnc4cc3F)CC2)o1` [Compound 507, 5-((4-(7-fluoro-[1,2,4]triazolo[1,5-a]pyridin-6-yl)piperidin-1-yl)sulfonyl)-2-methyloxazole] as the compound, how does the IC50 read?
The IC50 was 3070 nM.

With `O=S(=O)(c1cnn2cccnc12)N1CCC(c2cn3ncnc3cc2F)CC1` [Compound 443, 7-fluoro-6-(1-(pyrazolo[1,5-a]pyrimidin-3-ylsulfonyl)piperidin-4-yl)-[1,2,4]triazolo[1,5-a]pyridine] as the compound, how does the IC50 read?
The IC50 was > 10000 nM.

How did the IC50 turn out when `Cc1cc2ncnn2nc1C1CCN(S(=O)(=O)c2cnn3ccccc23)CC1` [Compound 546, 7-methyl-6-(1-(pyrazolo[1,5-a]pyridin-3-ylsulfonyl)piperidin-4-yl)-[1,2,4]triazolo[1,5-b]pyridazine] was run?
The IC50 was 534 nM.

For `Cc1cc2ncnn2cc1C1CCN(S(=O)(=O)c2cnn(C)c2Br)CC1` [Compound 522, 6-(1-((5-Bromo-1-methyl-1H-pyrazol-4-yl)sulfonyl)piperidin-4-yl)-7-methyl-[1,2,4]triazolo[1,5-a]pyridine], which IC50 is on record?
The IC50 was 8 nM.

Which IC50 does the source give for `Cc1cc2nccnc2cc1C1CCN(S(=O)(=O)c2cnn(C)c2Cl)CC1` [Compound 424, 6-(1-((5-chloro-1-methyl-1H-pyrazol-4-yl)sulfonyl)piperidin-4-yl)-7-methylquinoxaline] here?
The IC50 was 55 nM.

`Cc1cc2nccn2cc1C1CCN(S(=O)(=O)c2cnn(C)c2Cl)CC1` [Compound 581, 6-(1-((5-chloro-1-methyl-1H-pyrazol-4-yl)sulfonyl)piperidin-4-yl)-7-methylimidazo[1,2-a]pyridine] was tested. Which IC50 did it give?
Its IC50 is 25 nM.

How did the IC50 turn out when `Cc1ncc(S(=O)(=O)N2CCC(c3cn4ncnc4cc3C(F)(F)F)CC2)o1` [Compound 498, 2-methyl-5-((4-(7-(trifluoromethyl)-[1,2,4]triazolo[1,5-a]pyridin-6-yl)piperidin-1-yl)sulfonyl)oxazole] was run?
The IC50 was 496 nM.

`COc1c(S(=O)(=O)N2CCC(c3cn4ncnc4cc3Cl)CC2)c(I)nn1C` (single isomer, unassigned) [Compound 625, 7-Chloro-6-(1-((3-iodo-5-methoxy-1-methyl-1H-pyrazol-4-yl)sulfonyl)piperidin4-yl)-[1,2,4]triazolo[1,5-a]pyridine] was tested. Which IC50 did it give?
The IC50 was 27 nM.
